Columns and labels:
full-length WRN helicase = target: T1, full-length WRN helicase (Homo sapiens, UniProt Q14191); assay: Radiometric helicase inhibitor reversibility assay (100-fold dilution); format: biochemical; set-up: key to Reversibility: (-) = irreversible; (+) = minimally reversible; (++) = partially reversible; (+++) = reversible; conditions: for Reversibility: WRN 100 nM preincubated at 10-fold IC50, diluted 100-fold, unwinding 0-16 min; for Reversibility of inhibition (in words): full-length WRN
T1 construct: Full length recombinant WRN [18], BLM [19], and FANCJ [20] proteins were purified from insect cells; made in house; host or cells: insect cells
T1 sequence (Q14191 whole entry): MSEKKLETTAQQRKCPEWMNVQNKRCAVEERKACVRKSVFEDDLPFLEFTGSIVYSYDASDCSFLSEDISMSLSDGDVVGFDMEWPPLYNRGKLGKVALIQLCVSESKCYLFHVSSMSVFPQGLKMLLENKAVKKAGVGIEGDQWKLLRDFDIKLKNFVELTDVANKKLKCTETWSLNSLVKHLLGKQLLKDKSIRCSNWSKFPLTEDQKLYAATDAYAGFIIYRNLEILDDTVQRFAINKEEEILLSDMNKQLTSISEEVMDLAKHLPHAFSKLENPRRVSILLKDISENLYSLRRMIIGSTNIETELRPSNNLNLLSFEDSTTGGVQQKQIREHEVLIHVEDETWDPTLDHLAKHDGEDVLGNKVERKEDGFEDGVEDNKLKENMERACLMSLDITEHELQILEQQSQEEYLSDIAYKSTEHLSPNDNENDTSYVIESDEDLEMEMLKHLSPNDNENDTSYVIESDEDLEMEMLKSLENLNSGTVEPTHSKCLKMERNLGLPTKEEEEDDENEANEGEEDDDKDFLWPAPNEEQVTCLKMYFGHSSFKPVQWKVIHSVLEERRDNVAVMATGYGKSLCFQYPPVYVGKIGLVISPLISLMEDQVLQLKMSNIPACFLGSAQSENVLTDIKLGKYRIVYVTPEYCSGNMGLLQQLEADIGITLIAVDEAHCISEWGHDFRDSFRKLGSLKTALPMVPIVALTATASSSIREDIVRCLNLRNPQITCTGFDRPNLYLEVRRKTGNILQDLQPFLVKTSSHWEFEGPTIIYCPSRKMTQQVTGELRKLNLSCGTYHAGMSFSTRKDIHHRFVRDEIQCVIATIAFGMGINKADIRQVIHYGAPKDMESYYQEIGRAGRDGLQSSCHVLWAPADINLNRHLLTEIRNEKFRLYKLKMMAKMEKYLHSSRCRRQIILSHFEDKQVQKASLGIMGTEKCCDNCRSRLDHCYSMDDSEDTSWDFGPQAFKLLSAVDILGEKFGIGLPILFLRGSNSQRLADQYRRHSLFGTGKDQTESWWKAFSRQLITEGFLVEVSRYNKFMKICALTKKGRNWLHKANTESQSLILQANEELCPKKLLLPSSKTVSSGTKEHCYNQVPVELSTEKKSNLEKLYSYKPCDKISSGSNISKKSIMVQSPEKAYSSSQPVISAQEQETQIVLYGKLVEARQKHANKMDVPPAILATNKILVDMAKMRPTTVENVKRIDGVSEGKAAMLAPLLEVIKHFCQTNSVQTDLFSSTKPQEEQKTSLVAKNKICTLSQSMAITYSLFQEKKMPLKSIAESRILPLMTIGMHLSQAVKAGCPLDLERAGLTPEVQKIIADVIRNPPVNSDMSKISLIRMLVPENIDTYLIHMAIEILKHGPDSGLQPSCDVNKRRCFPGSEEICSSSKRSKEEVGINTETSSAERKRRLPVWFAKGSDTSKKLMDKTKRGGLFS
Procedure: WRN (full length, 100 nM concentration) was incubated with each small molecule inhibitor at a concentration 10-fold higher than the IC50 for that inhibitor, in a 10 μL reaction at room temperature. 1.5 μL of this reaction was added to 148.5 μL of reaction salts with 2 mM ATP, 0.5 nM FORKR reducing the full length WRN concentration to 1 nM and the drug concentration to 10-fold less than its IC50. Reactions were placed at 37°C and 20 μL of reaction were removed at specific intervals (0–16 min) and quenched with 20 μL of 2X STOP dye containing EDTA, glycerol, bromphenol blue and xylene cyanol. Samples were electrophoresed for 1.5 hr at 200 V on a 12% non-denaturing PAGE gel in 1X TBE Buffer.
Eighteen compounds were selected based on potency of inhibition in both the screening and radiometric assays, and exclusion of compounds with undesired chemical features. For each compound, we performed titrations over a wide range of concentrations with a fixed concentration of full-length WRN protein (1 nM), and quantitated unwinding as a percentage of full-length WRN unwinding of the FORKR DNA substrate (0.5 nM) in the absence of compound (Fig 6A and 6B, S3 Fig). […] In addition to determining an IC50 value for each compound, we also conducted helicase assays to determine the reversibility of inhibition by each compound tested. Details of the assay can be found in the Materials and Methods section, but briefly 100 nM WRN was incubated with each compound at a concentration 10-fold higher than its IC50 value. The reaction was diluted 100-fold with the addition of DNA substrate (0.5 nM final concentration) and ATP (2 mM final concentration) and unwinding was measured (Fig 7A–7D, S4 Fig). Inhibition was either classified as reversible, partially reversible, minimally reversible, or irreversible based on the ability of helicase activity to recover after dilution of the compound 100-fold. Table 2 summarizes the IC50 values and reversibility for each compound and includes IC50 values obtained from the screens for comparison.

[1] = target: T2, full-length FANCJ helicase (Homo sapiens, UniProt Q9BX63); assay: Radiometric helicase assay, full-length FANCJ; format: biochemical; conditions: for IC50: full-length FANCJ 5 nM, FORKR 0.5 nM
T2 construct: Full length recombinant WRN [18], BLM [19], and FANCJ [20] proteins were purified from insect cells; made in house; host or cells: insect cells
T2 sequence (Q9BX63 1-1249): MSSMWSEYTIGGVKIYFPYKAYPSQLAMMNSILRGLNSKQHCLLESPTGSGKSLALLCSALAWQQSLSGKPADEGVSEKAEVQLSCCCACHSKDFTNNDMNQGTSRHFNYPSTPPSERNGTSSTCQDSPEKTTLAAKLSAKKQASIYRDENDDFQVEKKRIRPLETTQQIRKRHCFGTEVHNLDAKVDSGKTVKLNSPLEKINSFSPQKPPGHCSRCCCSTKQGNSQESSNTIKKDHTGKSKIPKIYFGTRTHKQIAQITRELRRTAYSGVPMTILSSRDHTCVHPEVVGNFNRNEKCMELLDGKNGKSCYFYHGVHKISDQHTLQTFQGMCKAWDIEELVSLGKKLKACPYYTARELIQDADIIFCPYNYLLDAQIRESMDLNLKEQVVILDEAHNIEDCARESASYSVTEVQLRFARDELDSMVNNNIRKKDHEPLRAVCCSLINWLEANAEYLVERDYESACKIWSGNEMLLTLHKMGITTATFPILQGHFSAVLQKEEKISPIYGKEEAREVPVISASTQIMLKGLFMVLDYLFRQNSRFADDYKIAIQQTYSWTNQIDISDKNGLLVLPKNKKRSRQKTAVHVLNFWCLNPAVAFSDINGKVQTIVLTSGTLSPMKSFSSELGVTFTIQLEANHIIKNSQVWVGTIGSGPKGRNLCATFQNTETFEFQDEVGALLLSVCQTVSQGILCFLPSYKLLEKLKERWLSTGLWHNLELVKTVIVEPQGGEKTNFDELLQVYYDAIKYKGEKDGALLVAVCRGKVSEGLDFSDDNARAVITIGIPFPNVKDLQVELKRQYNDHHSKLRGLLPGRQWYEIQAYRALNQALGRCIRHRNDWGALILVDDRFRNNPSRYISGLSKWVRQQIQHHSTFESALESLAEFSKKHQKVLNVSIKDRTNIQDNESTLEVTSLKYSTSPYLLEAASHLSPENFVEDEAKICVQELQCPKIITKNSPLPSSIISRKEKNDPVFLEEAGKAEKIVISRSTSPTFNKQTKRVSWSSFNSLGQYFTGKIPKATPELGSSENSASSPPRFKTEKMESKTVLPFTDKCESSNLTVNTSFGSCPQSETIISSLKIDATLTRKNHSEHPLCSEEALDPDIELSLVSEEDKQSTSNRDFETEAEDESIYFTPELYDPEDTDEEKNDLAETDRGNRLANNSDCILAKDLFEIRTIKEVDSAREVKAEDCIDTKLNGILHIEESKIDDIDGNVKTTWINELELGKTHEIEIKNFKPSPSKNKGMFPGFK
Procedure: Fifteen μL of reaction buffer was added to a microcentrifuge tube followed by the addition of 1 μL of selected compounds (0.5–100 μM final concentration) or DMSO. One μL of WRN (full length), RECQ1, FANCJ, BLM or control was added to each reaction and incubated at room temperature for 15 min. Three μL of substrate (0.5 nM FORKR and 2 mM ATP final concentrations) were added to all reactions which were incubated at 37°C for 15 min. Reactions were stopped with the addition of 20 μL of 2X STOP dye containing EDTA, glycerol, bromphenol blue and xylene cyanol. Samples were electrophoresed for 1.5 hr at 200 V on a 12% non-denaturing PAGE gel in 1X TBE Buffer.
Three compounds identified from the cherry-picked set were tested for their effects on WRN exonuclease activity (20 nM) on the FORKR DNA substrate (1 nM) as well as DNA unwinding by full-length BLM (0.1 nM) and FANCJ (5 nM) helicases, which belong to the same Superfamily 2 as WRN [25], to assess their specificity for inhibition of WRN-catalyzed unwinding of the FORKR DNA substrate (0.5 nM). […] Nonetheless, these two compounds were also further tested in cell-based assays to assess their effects on proliferation.
Supplementary file pone.0210525.s005.TIF: S5 Fig Specificity of select WRN inhibitors for inhibition of other human helicases. (A) Quantitation of full-length BLM helicase (0.1 nM) activity on the FORKR DNA substrate (0.5 nM) with increasing concentration of each compound (0–100 μM). (B) Quantitation of full-length FANCJ (5 nM) helicase activity on the FORKR DNA substrate (0.5 nM) with increasing concentration of each compound (0–100 μM). (TIF) Click here for additional data file.

SMILES	Reversibility (full-length WRN helicase)	IC50 for WRN helicase inhibition fold less than that observed for FANCJ ([1]; WRN vs FANCJ)	IC50 [1]	Reversibility of inhibition (in words) (full-length WRN helicase)
Cc1ccc(-c2csc(NS(=O)(=O)c3cccc(F)c3)n2)o1 [MLS002251300-02]	++	6 fold	28.5 ± 2 µM	–
COc1ccc2nc(O)c(-c3noc(-c4ccc(F)cc4)n3)cc2c1 [NCGC00029283-02]	++	–	3.4 ± 0.5 µM	at least partially reversible
COc1ccc2nc(O)c(-c3noc(-c4ccccc4)n3)cc2c1 [NCGC00063279-02]	+++	–	13.9 ± 2.6 µM	at least partially reversible

Reference: publication PMC6326523, “A high-throughput screen to identify novel small molecule inhibitors of the Werner Syndrome Helicase-Nuclease (WRN)” (PLoS ONE, 2019)
